Laboratory results: patent US20070141120A1, “Peptide having an ace inhibiting effect” (priority 2003, published 2007)
Peptide text beside a SMILES is read from it.

Columns and labels:
[1] = biological target: ACE (Homo sapiens, UniProt P12821); assay: ACE-inhibition assay 1: enzyme based assay (EBA); assay type: biochemical; settings: substrate Abz-FRK-(Dnp)P-OH, pH 7.0, fluorescence
Protocol: ACE and a synthetic substrate (Abz-FRK-(Dnp)P-OH) were used in the ACE-inhibition assay performed in white optiplate-96 microplates (Packard Bioscience). The substrate was a kind gift of Adriana K. Carmona (Dept. of Biophysics, Escola Paulista de Medivina, Universidae Federal de Sao Paulo, Brazil). Stock solutions of Abz-FRK-(Dnp)P-OH were prepared in DMSO. […] The assay buffer composition was 100 mM tris/HCl buffer pH 7.0 containing 100 mM NaCl. Forty μl sample solution in assay buffer was added to each well. In case of the controls only buffer was added. The samples were measured in threefold in a fluorophotometer (Fluostar, BMG labtechnologies). […] The ACE activity was measured for 10 cycles (about 10 minutes) by measuring the fluorescence at λex=320 nm and ξem=420 nm. The raw data was converted to the slope/sec and the ACE inhibition activity was calculated using the equation below. ACE inhibition (%)=[1−(Smean−Bmean)/(Cmean−Bmean)]*100
Bmean=average result of background (substrate)

[2] = test system: ACE; assay: ACE-inhibition assay 2: modified Matsui assay; assay type: biochemical; settings: substrate Hip-His-Leu, pH 8.3, 37° C., 30 min
Protocol: This ACE inhibition activity was assayed according to the method of Matsui et al. (Matsui, T. et al. (1992) Biosci. Biotech. Biochem. 56: 517-518) with the modifications described below.
For each sample 75 μl 3 mM hippuryl histidine leucine (Hip-His-Leu, Sigma chemicals Co.; the chemical was dissolved in 250 mM Borate containing 200 mM NaCl, pH 8.3); 20 μl 0.1 U/ml ACE (obtained at Sigma) or H2O, and 25 μl sample or H2O were mixed (see Table 1). The mixtures were incubated at 37° C. and stopped after 30 min by adding 125 μl 0.5 M HCl. Subsequently, 225 μl bicine/NaOH solution (1 M NaOH:0.25 M bicine (4:6)) was added, followed by 25 μl 0.1 M TNBS (2,4,6-Trinitrobenzenesulfonic acid, Fluka, Switzerland; in 0.1 M Na2HPO4). After incubation for 20 min. at 37° C., 4 ml 4 mM Na2SO3 in 0.2 M NaH2PO4 was added and the absorbance at 416 nm was measured with UV/Vis spectrophotometer (Shimadzu UV-1601 with a CPS controller, Netherlands).
The amount of ACE inhibition (ACEI) activity was calculated as a percentage of inhibition compared with the conversion rate of ACE in the absence of an inhibitor: ACEI (%)=(((C1−C2)−(S1−S2))/(C1−C2))*100 (1)
C1=Absorbance without ACE inhibitory component (=max. ACE activity) [AU].
C2=Absorbance without ACE inhibitory component and without ACE (background) [AU].
S1=Absorbance in the presence of ACE and the ACE inhibitory component [AU].
S2=Absorbance in the presence of the ACE inhibitory component, but without ACE [AU].

[3] = Stability during exposure to human serum (LC-MS); settings: 37° C., up to 360 min, peptide mixtures
Protocol: Samples of 1.5 ml were collected in eppendorf vials at each of the time points. […] Samples were subsequently incubated for 5 min at 100° C. and then centrifugated in an IEC Micromax RF centrifuge (Boom BV Meppel) at 10.000 rpm for 20 minutes. The supernatant was collected in eppendorf vials and stored at −20° C. for further analysis. Experiments were performed in triplicate.
(§1) All measurements were carried out on a Waters Quattro-II or Quattro-Ultima triple quadrupole mass spectrometer. The LC separation was carried out at 25° C. on a Inertsil 5 ODS3 column, 150×2.1 mm, packed with 3 μm particles (Chompack) using 0-50% acetonitrile/0.1% (v/v) TFA. For analyses, 5 μl sample was injected onto the column. The flow rate through the column was 0.2 ml/min. The total flow after post-column makeup was 0.05 ml/min and contained a 7/3 (v/v) mixture of propionic acid and propanol-2. Gradient effluent was analysed using MRM mass spectrometry in positive-ESI mode. Capillary voltage was 4 kV. Source and nebulizer temperature were 100° C. and 250° C., repsectively. Drying and nebuliser gas flow were 300 l/h and 17 l/h, respectively. Collision gas was argon at a pressure of 7.9 e-4 mbar.

[4] = test system: Caco-2 cells; assay: Stability during exposure to Caco-2 cells (LC-MS); settings: up to 360 min, peptide mixtures
Protocol: Caco-2 cells were obtained from American Type Culture Collection (ATCC) and used in experiments at passage 30-40. Cells were cultured in 75 cm^2 culture flasks (Corning Costar, Badhoevedorp, The Netherlands). The culture medium consisted of DMEM (high glucose, with L-glutamine) supplemented with 20% (v/v) foetal bovine serum, 1% (v/v) penicillin/streptomycin solution and 1% (v/v) NEAA. Cells were maintained at 37° C. in a humidified atmosphere of 5% CO2 in air. For stability experiments, cells were seeded on 12 well cell culture plates (Costar, Badhoevedorp, The Netherlands) and cultured for at least 21 days.
Cells were cultured in 12-well plates. Peptide mixtures were added to culture medium without foetal bovine serum, but containing 20% (v/v) solid phase extracted foetal bovine serum. […] For Caco-2 cells, 330 μl medium containing 0.1, 1 and 10 μg/ml peptide was added to each well of the culture plate. Three times 110 μl medium was collected at 0, 5, 10, 20, 30, 60, 90, 180 and 360 min of incubation. Experiments were performed in triplicate and all samples were directly placed on dry-ice and stored at −20° C. […] Wells without cells served as controls.
as §1

[5] = test system: HUVEC cells; assay: Stability during exposure to HUVEC cells (LC-MS); settings: up to 120 min, peptide mixtures
Protocol: HUVEC cells were obtained from (Cambrex Bio Science, Verviers, Belgium) and used in experiments at passage 1-5. Cells were cultured in 75 cm^2 culture flasks (Corning Costar, Badhoevedorp, The Netherlands). The culture medium (Cambrex) consisted of EBM-2 supplemented with 2% (v/v) foetal bovine serum, 0.04% (v/v) Hydrocortisone, 0.4% (v/v) human Fibroblast Growth Factor Basic with heparin, 0.1% (v/v) Vascular Endothelial Growth Factor, 0.1% (v/v) human recombinant Insulin-like Growth Factor, 0.1% (v/v) Ascorbic acid, 0.1% (v/v) human recombinant Epidermal Growth Factor, 0.1% (v/v) Gentamicin, Amphotericin-B and 0.1% (v/v) Heparin. Cells were maintained at 37° C. in a humidified atmosphere of 5% CO2 in air. For stability experiments, cells were seeded in a 12 well plate (Corning Costar, Badhoevedorp, The Netherlands) at a density of 100.000 cells/well and cultured for 2 days.
Cells were cultured in 12-well plates. Peptide mixtures were added to culture medium without foetal bovine serum, but containing 20% (v/v) solid phase extracted foetal bovine serum. For HUVEC, 400 μl medium containing 0.1, 1 and 10 μg/ml peptide was added to a well of the culture plate. Three times 130 μl medium was collected at 0, 5, 10, 20, 30, 60, 90 and 120 min of incubation. […] Experiments were performed in triplicate and all samples were directly placed on dry-ice and stored at −20° C. […] Wells without cells served as controls.
as §1

[6] = in sour milk, hypertensive humans, placebo-controlled; cited from earlier work
[7] = In vitro gastrointestinal digestion (GI conditions); settings: simulated gastric fluid pH 3.5 60 min, then intestinal fluid pH 6.8 120 min, 37° C.
Protocol: The stability of peptides in the human gastrointestinal tract was studied by subjecting fermented or hydrolysed milk proteins to typical conditions in the stomach and small intestine. Gastric conditions were mimicked by dissolving 80 ml fermented or hydrolysed milk protein in 820 ml water contianing 2.0 g NaCl, 2.9 g pepsin and 0.45 g Amano Lipase F-AP15 from Rhizopus oryzae. The fluid was adjusted to pH 3.5 with HCl, stirred with a peddle (50 rpm) and kept at 37° C. for 60 min. […] The simulated intestinal fluid was stirred with a peddle (50 rpm) and kept at 37° C. for 120 min. Samples were collected at different time points during the in vitro gastrointestinal digestion. After collection, samples were directly heated at 95° C. for 30 min and subsequently stored at −20° C.

Chain of ACE (Homo sapiens, UniProt P12821) (P12821 30-1306, species assumed): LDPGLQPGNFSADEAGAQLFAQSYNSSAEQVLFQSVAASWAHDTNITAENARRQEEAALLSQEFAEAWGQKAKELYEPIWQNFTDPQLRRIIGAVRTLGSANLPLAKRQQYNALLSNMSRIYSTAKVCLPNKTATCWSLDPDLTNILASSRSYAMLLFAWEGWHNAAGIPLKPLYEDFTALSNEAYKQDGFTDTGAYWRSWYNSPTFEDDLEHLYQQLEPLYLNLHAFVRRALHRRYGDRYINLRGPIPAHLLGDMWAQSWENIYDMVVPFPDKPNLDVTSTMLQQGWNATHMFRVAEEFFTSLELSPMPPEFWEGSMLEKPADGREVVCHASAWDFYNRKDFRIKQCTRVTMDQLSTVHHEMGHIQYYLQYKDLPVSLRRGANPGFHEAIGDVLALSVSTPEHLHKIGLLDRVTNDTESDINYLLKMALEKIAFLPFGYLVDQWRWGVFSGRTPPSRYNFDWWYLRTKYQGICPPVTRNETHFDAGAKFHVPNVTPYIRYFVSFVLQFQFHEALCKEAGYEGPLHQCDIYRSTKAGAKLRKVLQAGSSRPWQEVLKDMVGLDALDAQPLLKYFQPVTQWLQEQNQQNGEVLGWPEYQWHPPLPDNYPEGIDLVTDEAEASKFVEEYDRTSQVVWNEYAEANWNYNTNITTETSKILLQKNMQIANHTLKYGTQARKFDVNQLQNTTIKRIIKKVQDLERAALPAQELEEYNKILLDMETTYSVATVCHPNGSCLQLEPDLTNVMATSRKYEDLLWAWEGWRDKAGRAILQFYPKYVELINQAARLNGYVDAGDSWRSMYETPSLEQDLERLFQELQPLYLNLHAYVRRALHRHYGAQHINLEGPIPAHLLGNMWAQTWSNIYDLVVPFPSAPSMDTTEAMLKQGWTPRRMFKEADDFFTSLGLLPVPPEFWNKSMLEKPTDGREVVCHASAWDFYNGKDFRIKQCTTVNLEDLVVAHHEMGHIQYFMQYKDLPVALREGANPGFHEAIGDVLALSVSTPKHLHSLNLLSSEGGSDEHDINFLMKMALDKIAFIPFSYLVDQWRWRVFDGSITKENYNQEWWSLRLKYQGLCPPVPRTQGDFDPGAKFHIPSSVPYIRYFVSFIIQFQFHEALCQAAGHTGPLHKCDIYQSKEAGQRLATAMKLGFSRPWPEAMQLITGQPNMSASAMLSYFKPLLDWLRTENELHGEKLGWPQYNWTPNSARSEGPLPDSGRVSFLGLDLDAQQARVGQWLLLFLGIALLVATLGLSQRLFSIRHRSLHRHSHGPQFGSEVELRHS

Structure (SMILES) | IC50 [1] | IC50 [2] | Stability, Serum [3] | Stability, Caco-2 [4] | Stability, HUVEC [5] | Blood pressure effect [6] | Stability, GI conditions [7]
N[C@@H](CS)C(=O)N1CCC[C@H]1C(=O)N1CCC[C@H]1C(=O)O [CPP] (H-Cys-Pro-Pro-OH; N-terminus and C-terminus assumed) | 5 µM | 4 µM |  |  |  |  | 
N[C@@H](Cc1ccccc1)C(=O)N[C@@H](Cc1ccc(O)cc1)C(=O)O [FY] (H-Phe-Tyr-OH; N-terminus and C-terminus assumed) | 20 µM | 10 µM | + | +/− | − |  | 
CC[C@H](C)[C@H](N)C(=O)N1CCC[C@H]1C(=O)N1CCC[C@H]1C(=O)O [IPP] |  |  | +/− | − | + | blood pressure lowering effect | +
NCCCC[C@H](N)C(=O)N1CCC[C@H]1C(=O)N1CCC[C@H]1C(=O)O [KPP] (H-Lys-Pro-Pro-OH; N-terminus and C-terminus assumed) | > 50 µM |  |  |  |  |  | 
CC(C)C[C@H](NC(=O)[C@@H](NC(=O)[C@@H](N)CCCCN)C(C)C)C(=O)N1CCC[C@H]1C(=O)N[C@H](C(=O)N1CCC[C@H]1C(=O)O)C(C)C [KVLPVP] (H-KVLPVP-OH; N-terminus and C-terminus assumed) |  | 2 µM | − | − | − |  | 
CSCC[C@H](N)C(=O)N1CCC[C@H]1C(=O)N1CCC[C@H]1C(=O)O [MPP] (H-Met-Pro-Pro-OH; N-terminus and C-terminus assumed) | 10 µM | 7 µM | +/− | − | + |  | 
CC[C@H](C)[C@H](NC(=O)[C@@H]1CCCN1)C(=O)N1CCC[C@H]1C(=O)O [PIP] (H-Pro-Ile-Pro-OH; N-terminus and C-terminus assumed) | > 50 µM |  | − | − | +/− |  | 
CC(C)C[C@H](NC(=O)[C@@H]1CCCN1)C(=O)N1CCC[C@H]1C(=O)O [PLP] (H-Pro-Leu-Pro-OH; N-terminus and C-terminus assumed) | > 50 µM |  | − | − | +/− |  | 
C[C@@H](O)[C@H](N)C(=O)N1CCC[C@H]1C(=O)N1CCC[C@H]1C(=O)O [TPP] (H-Thr-Pro-Pro-OH; N-terminus and C-terminus assumed) | 35 µM | 15 µM | +/− | + | + |  | 
CC(C)[C@H](N)C(=O)N[C@@H](C)C(=O)N1CCC[C@H]1C(=O)O [VAP] (H-Val-Ala-Pro-OH; N-terminus and C-terminus assumed) | 4 µM | 1 µM | − | − | − |  | 
CC(C)[C@H](N)C(=O)N[C@@H](Cc1ccccc1)C(=O)O [VF] (H-Val-Phe-OH; N-terminus and C-terminus assumed) |  |  | +/− | +/− | − |  | 
CC(C)[C@H](N)C(=O)N1CCC[C@H]1C(=O)N1CCC[C@H]1C(=O)O [VPP] |  |  |  |  |  | blood pressure lowering effect | 
